The numbers were not newly measured in patent US4894235A, “Nifedipine-containing form of administration and method for its production” (Dr. Rentschler, Arzneimmittel GmbH & Co., priority 1984, dated 1990), which cites them from elsewhere.

The conditions of data set [1]: influence of light.
The conditions of data set [2]: Ramsch, Selecta 10, p. 860, 1983.

As for `COC(=O)C1=C(C)NC(C)=C(C(=O)OC)C1c1ccccc1[N+](=O)[O-]` [Nifedipine, 1,4-dihydro-2,6-dimethyl-4-(2-nitrophenyl)-3,5-pyridine-dicarboxylic acid-dimethylester], in data set [1], the photo-sensitivity entry is listed as “very photo-sensitive”. The “lower limit for blood plasma levels” value in data set [2] was 10 to 15 nanograms per milliliter.
